From US11202751B2, “Whitening cosmetic composition comprising Caragana sinica root extract” (CELLTRION, INC., priority 2015, dated 2021)

Experiments:
[1] = system: tyrosinase, isolated and refined from a mushroom; assay: Tyrosinase activity inhibition (absorbance at 475 nm, L-tyrosine substrate); assay type: biochemical
Description: A tyrosinase is an enzyme that promotes an oxidization process of a substance called tyrosine in vivo to produce a melanin. […] After that, 0.5 ml of a resulting L-tyrosine solution was inserted into a test tube, after which 0.5 ml of a sample fluid of the above Caragana Sinica root extract and the fraction thereof was added thereto, such that the test tube of a resulting mixture was left alone in a 37° C. constant temperature chamber for 10 minutes. […] The reaction was stopped by placing the test tube containing that reaction solution on ice to be rapidly cooled down, after which an absorbance of the resulting product was measured with a spectrophotometer at a wavelength of 475 nm. Control group was one containing 0.5 ml of a buffer solution instead of the Caragana Sinica root extract, and the comparison target was arbutin, well-known as a skin whitening agent. At that time, an inhibition rate of tyrosinase activity (%) was calculated according to the following Mathematical formula 1, wherein results thereof were shown in the following Table 2. [formula] [formula]

[2] = system: B16F1 melanin-forming cell; assay: Melanin production inhibition in B16F1 melanin-forming cells; assay type: cell-based; settings: Mus musculus, B16-F1, 72 hours, read-out: Inhibition rate of melanin production (%)
Excerpt: In order to confirm a whitening effect of the ethanol extract of Caragana Sinica root and the fraction thereof prepared in the above Examples 1 to 5, its effect on inhibiting a production of melanin was confirmed with regard to a B16F1 melanin-forming cell.
Specifically, the B16F1 melanin-forming cells, as a mouse-derived cell line, were obtained from American Type Culture Collection (ATCC) to use. The B16F1 melanin-forming cells were divided into a 6-well plate at a concentration of 2×10^5 per well, after which the cells were attached thereto, thus being divided at such a concentration as not to cause toxicity. […] After this 72-hour cultivation, the cells were taken off by trypsin-EDTA, after which the number of cells was measured, and then cells were collected by centrifugation. A quantification of melanin in cells was performed in such a way that modifying method of Lotan (Cancer Res., 40: 3345-3350, 1980). […] 1N NaOH (10% DMSO) was added to a cell lysate obtained through centrifugation (3,000 rpm, 10 minutes) so as to dissolve the extracted melanin, after which an absorbance of the melanin was measured by microplate reader at 405 nm, and the melanin was quantified to measure an inhibition rate of melanin production (%) of a sample. […]

[3] = system: B16F1 melanin-forming cell; assay: Inhibition of α-MSH-induced melanin production in B16F1 cells; assay type: cell-based, mouse; settings: for IC50: B16F1, 70 to 74 hours
Description: Specifically, the B16F1 melanin-forming cells, as a mouse-derived cell line, were obtained from American Type Culture Collection (ATCC) to use. The B16F1 melanin-forming cells were divided into a 6-well plate at a concentration of 2×10^5 per well, after which the cells were attached thereto, thus being divided at such a concentration as not to cause toxicity. After that, the ethanol extract of Caragana Sinica root and the fraction thereof obtained from the above Examples 1 to 5 were treated at each concentration, and then being cultured for 72 hours. After this 72-hour cultivation, the cells were taken off by trypsin-EDTA, after which the number of cells was measured, and then cells were collected by centrifugation. A quantification of melanin in cells was performed in such a way that modifying method of Lotan (Cancer Res., 40: 3345-3350, 1980). A cell pallet was washed once with PBS, after which 1 ml of a homogenization buffer solution (50 mM sodium phosphate, pH6.8, 1% Triton X-100, 2 mM PMSF) was added thereto and swirled for 5 minutes to crush the cells. 1N NaOH (10% DMSO) was added to a cell lysate obtained through centrifugation (3,000 rpm, 10 minutes) so as to dissolve the extracted melanin, after which an absorbance of the melanin was measured by microplate reader at 405 nm, and the melanin was quantified to measure an inhibition rate of melanin production (%) of a sample. The inhibition rate of melanin production (%) of the B16F1 melanin-forming cell was calculated according to the following [Mathematical formula 2], wherein results thereof were indicated at Table 3.
In order to confirm whitening effect of α-viniferin isolated from the fraction of Caragana Sinica root of the above Example 4, its effect on inhibiting a production of melanin was confirmed with regard to a B16F1 melanin-forming cell.
Specifically, the α-viniferin isolated from the ethyl acetate fraction of the ethanol extract of Caragana Sinica root obtained from the above Example 4 or arbutin, and α-MSH, a stimulant of melanin production, were treated at the same time, after which an amount of melanin was measured in 70 to 74 hours later as describe in the above Example 2-2.

[4] = Stability of isolated α-viniferin at 50° C. (HPLC content); assay type: physicochemical; settings: for content by HPLC / content relative to initial: 50° C.
Description: In order to confirm a stability of α-viniferin, the α-viniferin isolated from the ethyl acetate fraction of the ethanol extract of Caragana Sinica root obtained from the above Experimental Example 1 was stored under a condition of 50° C. for 2 weeks, after which content changes thereof were observed through an HPLC analysis by the same method of the above Experimental Example 1. A control group was kobophenol A isolated from the Caragana Sinica root extract, which was stored under the same condition with that of the α-viniferin, after which content changes thereof were observed by the same method.

Row | Compound | Inhibition rate of tyrosinase activity (%) ([1]; sample concentration 0.05%) | Inhibition rate of tyrosinase activity (%) ([1]; sample concentration 0.1%) | Inhibition rate of tyrosinase activity (%) ([1]; sample concentration 0.2%) | inhibition at 100 µg/mL ([2]; 100 μg/ml) [%] | inhibition at 200 µg/mL ([2]; 200 μg/ml) [%] | inhibition at 100 µM ([3]; Mus musculus, B16-F1, 100 μM, read-out: inhibition rate of melanin production induced by α-MSH) [%] | inhibition at 200 µM ([3]; Mus musculus, B16-F1, 200 μM, read-out: inhibition rate of melanin production induced by α-MSH) [%] | inhibition at 400 µM ([3]; Mus musculus, B16-F1, 400 μM, read-out: inhibition rate of melanin production induced by α-MSH) [%] | IC50 ([3]; Mus musculus, B16-F1) [µM] | inhibition at 4 µM ([3]; Mus musculus, B16-F1, 4 μM, read-out: inhibition rate of melanin production induced by α-MSH) [%] | inhibition at 6 µM ([3]; Mus musculus, B16-F1, 6 μM, read-out: inhibition rate of melanin production induced by α-MSH) [%] | inhibition at 8 µM ([3]; Mus musculus, B16-F1, 8 μM, read-out: inhibition rate of melanin production induced by α-MSH) [%] | whitening effect on α-MSH-induced melanin production, times higher than that of arbutin ([3]; ratio of IC50 values vs arbutin) | content change at high temperature (in words) ([4]; 50° C. for 2 weeks) | content by HPLC ([4]; 1 week) [ppm] | content relative to initial ([4]; 1 week) [%] | content by HPLC ([4]; 2 weeks) [ppm] | content relative to initial ([4]; 2 weeks) [%] | content by HPLC ([4]; Initial) [ppm]
1 | OC[C@H]1O[C@@H](Oc2ccc(O)cc2)[C@H](O)[C@@H](O)[C@@H]1O [Arbutin, arbutin] | 21.2 | 38.4 | 78.7 | 63.5 | 75.7 | 13 | 44 | 73 | 242 |  |  |  |  |  |  |  |  |  | 
2 | Oc1ccc(C2Oc3cc(O)cc4c3[C@@H]2c2cc(O)cc3c2C(c2cc(O)cc5c2[C@@H]4[C@H](c2ccc(O)cc2)O5)[C@H](c2ccc(O)cc2)O3)cc1 (stereo partly drawn) [α-viniferin] |  |  |  |  |  |  |  |  | 7 | 8 | 21 | 63 | about 35 times | not decreased | 249.60 | 98.7 | 253.45 | 100.3 | 252.8
3 | kobophenol A |  |  |  |  |  |  |  |  |  |  |  |  |  |  | 115.6 | 95.2 | 103.6 | 85.3 | 121.4
